Assay results taken from patent US20220387602A1, “BIFUNCTIONAL DEGRADERS AND THEIR METHODS OF USE” (NOVARTIS AG, priority 2019, published 2022).

Molecular target: T1, hTNNI3K WT (Homo sapiens, UniProt Q59H18)
T1 construct: expressed in transfected cells
T1 sequence (Q59H18 1-835): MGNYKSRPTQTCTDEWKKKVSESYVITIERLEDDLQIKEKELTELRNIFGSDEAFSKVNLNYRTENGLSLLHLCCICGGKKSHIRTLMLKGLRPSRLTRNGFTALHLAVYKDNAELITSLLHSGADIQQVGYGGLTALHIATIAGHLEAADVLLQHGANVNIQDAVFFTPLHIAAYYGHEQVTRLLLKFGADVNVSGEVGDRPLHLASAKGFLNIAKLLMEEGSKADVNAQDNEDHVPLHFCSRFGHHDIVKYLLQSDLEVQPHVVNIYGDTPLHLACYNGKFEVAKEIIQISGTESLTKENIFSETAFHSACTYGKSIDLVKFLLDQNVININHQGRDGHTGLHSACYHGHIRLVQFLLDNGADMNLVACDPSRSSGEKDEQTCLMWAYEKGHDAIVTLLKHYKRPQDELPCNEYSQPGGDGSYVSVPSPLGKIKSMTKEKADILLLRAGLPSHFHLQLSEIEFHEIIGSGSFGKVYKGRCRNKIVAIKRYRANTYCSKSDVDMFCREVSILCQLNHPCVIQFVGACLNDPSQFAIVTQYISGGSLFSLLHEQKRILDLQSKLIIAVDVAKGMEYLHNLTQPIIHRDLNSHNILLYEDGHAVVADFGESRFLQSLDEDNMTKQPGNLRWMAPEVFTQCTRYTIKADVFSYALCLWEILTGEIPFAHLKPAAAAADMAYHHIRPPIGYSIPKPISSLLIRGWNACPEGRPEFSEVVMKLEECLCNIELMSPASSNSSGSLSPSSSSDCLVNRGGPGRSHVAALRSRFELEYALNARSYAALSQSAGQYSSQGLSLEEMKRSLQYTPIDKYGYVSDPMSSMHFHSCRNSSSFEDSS
Assay: TNNI3K degradation in HEK293 cells overexpressing hTNNI3K WT (western blot)
Assay type: cell-based
Details: FIGS. 4A-4B; for TNNI3K degradation (western blot): concentration dependent; for concentration from which no residual TNNI3K was detected: western blot, 18 hours
Experimental: HEK293-hTNNI3K stable cells were seeded at 400,000 cells/well in 6-well plate and incubated at 37° C. and 5% CO2 overnight in DMEM containing 10% FBS. The following day growth media was replaced with low-serum media containing DMEM with 0.5% FBS and incubated at 37° C. and 5% CO2 overnight. Following overnight serum starvation, cells were treated with compounds at 20 μM starting dose with 1:5 serial dilution prepared in low-serum media. Media was removed and compounds were added to 6-well plate at 2 mL per well and cells were incubated at 37° C. and 5% CO2 for 18 hours. Following compound treatment cells were washed with cold DPBS containing protease/phosphatase inhibitor cocktail (Thermo #1861284) and lysed in RIPA buffer on ice (Pierce #89900, also containing protease/phosphatase inhibitors). Following sonication and frequent vortexing at 4° C. for approximately 1 hour, samples were centrifuged at 14,000 rpm for 20 minutes. Supernatants were collected for protein samples. Protein concentration was determined using BioRad DC Protein Assay (FIGS. 3A and 3C).
Samples for western blotting were prepared in loading buffer (Thermo #NP0007) and 8 μg protein was loaded per lane in 4-12% Novex Bis-Tris gel and run at 60V for approximately 1 hour. Gels were transferred to PVDF membrane using semi-dry transfer device iBlot 2 from Thermo Scientific. Blots were blocked using Superblock T20 blocking solution for 2 hours at room temperature (Thermo #37536). Blots were then incubated with primary antibodies overnight with gentle shaking at 4° C. (TNNI3K #ab136954 and Beta-Actin CST #3700) at 1:1000 and 1:2000 dilution respectively. Following overnight primary antibody incubation, blots were washed 3 times on rocker for 5 minutes each with 1×TBS-T at room temperature. Blots were then incubated with secondary HRP-anti-rabbit at 1:2000 dilution (CST #7074) for 2 hours at room temperature. Blots were then washed with 1×TBS-T 3 times on rocker for 5 minutes each. Protein bands were detected using BioRad Chemi-Doc station and Supersignal West Dura substrate (Thermo #34075). Protein bands were quantified using ImageJ software. TNNI3K bands were normalized to beta-actin loading control. Data are graphed by fold change of cpd over DMSO control.
Here the amount of total normalized TNNI3K expression levels were monitored upon compound treatment in a dose dependent manner. IC50 refers to the concentration at which 50% reduction in protein expression was observed.

Structure (SMILES) | TNNI3K degradation (western blot) | concentration from which no residual TNNI3K was detected [nM]
CNS(=O)(=O)c1ccc(N(C)C)c(Nc2ncnc3cc(OCCCN4CCN(C(=O)N5CCN(CCC#Cc6ccc(N7CCC(=O)NC7=O)cc6)CC5)CC4)ccc23)c1 [Compound 21, 4-(dimethylamino)-3-((7-(3-(4-(4-(4-(4-(2,4-dioxotetrahydropyrimidin-1(2H)-yl)phenyl)but-3-yn-1-yl)piperazine-1-carbonyl)piperazin-1-yl)propoxy)quinazolin-4-yl)amino)-N-methylbenzenesulfonamide] | full degradation | 6
CNS(=O)(=O)c1ccc(N(C)C)c(Nc2ncnc3cc(OCCCN4CCC5(CC4)CN(CC#Cc4ccc(N6CCC(=O)NC6=O)cc4)CCO5)ccc23)c1 [Compound 22, 4-(dimethylamino)-3-((7-(3-(4-(3-(4-(2,4-dioxotetrahydropyrimidin-1(2H)-yl)phenyl)prop-2-yn-1-yl)-1-oxa-4,9-diazaspiro[5.5]undecan-9-yl)propoxy)quinazolin-4-yl)amino)-N-methylbenzenesulfonamide] | full degradation | 32
